{
  "source": "patent US20180022922A1",
  "about": "“METHOD FOR PREPARING A COLORANT FOR USE IN A HOT MELT INK” (Océ Holding B.V., priority 2016, published 2018)",
  "experiment": "Migration test (paper chromatography)",
  "assay_type": "physicochemical",
  "conditions": "Wattmann 1-CHR paper, eluent cyclohexane/toluene 50 wt %/50 wt %, judged qualitatively (FIG. 5)",
  "description": "A chromatography test is performed to provide an (comparative) indication of migration of a colorant on a print substrate. For this, solutions of the colorants to be tested, in dichloromethane are prepared. The prepared solutions contain substantially equal concentrations of colorant. For the purpose of the present invention, the eluent solution consists of a cyclohexane/toluene mixture (50 wt %/50 wt %). A sheet of Wattmann 1-CHR paper is used as a substrate. At about 1 cm from the bottom edge of the paper sheet dots of equal size of the colorant solutions are made (by using a pipette). Each dot is positioned at substantially the same distance from the bottom edge of the paper sheet. Then the sheet is left to dry. A beaker is filled with eluent solution such that the level of eluent solution is less than 1 cm. The dried test sample (paper sheet provided with colorant dots) is placed in the beaker such that the lower edge of the paper sheet touches the bottom of the beaker. Due to capillary flow the eluent solution will flow upward in the paper sheet. This set up is left to stand until the wetted height of paper sheet is at least 1.5 times the height to which the most soluble colorant rises. The results are judged qualitatively. If the colorant dot remains at the starting position, migration is not likely to occur. […]",
  "data": [
    {"smiles": "Cn1c(=O)cc2c3c(c(NC4CCCCC4)ccc31)C(=O)c1ccccc1-2", "note": "[SR149]", "values": [
      {"measurement": "migration of colorant on paper substrate", "value": "significant migration"}
    ]}
  ]
}
